Test results as given in article PMC10823514, “Target Identification of a Class of Pyrazolone Protein Aggregation Inhibitor Therapeutics for Amyotrophic Lateral Sclerosis” (ACS Central Science, 2023).

Columns and labels:
[1] = system: 25 kDa covalently modified band in HAP1 cells; test: Photoaffinity labeling with HAP1 wild-type and Hsp27 knockout cells; assay type: binding; details: 15 μM PRAPP
Excerpt: First, we conducted photoaffinity labeling studies with wild-type (WT) HAP1 cells to verify the existence of the 25 kDa covalent modification that we observed in PC12 cells.
Figure 7 Photoaffinity Labeling Experiments with HAP1 cells. […] The nonspecific background modifications remain unchanged with increasing concentration of P3, further confirming the 25 kDa covalently modified band as a true target; (B) comparison of the photoaffinity labeling experiments with HAP1 wild-type (WT) cells and Hsp27 knockout (KO) cells at 15 μM PRAPP concentration.

14-3-3-E = molecular target: T1, 14-3-3-E (Homo sapiens, UniProt P62258); test: Fluorescent thermal shift assay (FTSA) with 14-3-3-E; assay type: binding; details: for Tm shift (ΔTm): SYPRO orange
T1 construct: His-tag (TEV-cleavable) (cleaved yes); host or cells: E. coli (BL21)
T1 sequence (P62258 1-255): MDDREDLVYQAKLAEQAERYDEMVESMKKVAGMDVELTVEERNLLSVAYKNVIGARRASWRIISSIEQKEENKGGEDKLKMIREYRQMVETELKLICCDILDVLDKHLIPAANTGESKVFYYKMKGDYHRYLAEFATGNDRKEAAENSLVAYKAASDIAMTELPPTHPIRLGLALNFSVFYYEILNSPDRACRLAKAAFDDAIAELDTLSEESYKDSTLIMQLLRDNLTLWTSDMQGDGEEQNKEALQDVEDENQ
Protocol: (§1) His-tagged 14-3-3-E, B, and H plasmids were purchased from Addgene (plasmid ID# 31562, 39128, and 38814, respectively). E. coli (BL21) were transformed with extracted plasmids via heat shock and plated on selected media. Individual colonies were selected, grown, and sequenced to confirm gene presence. 1 L cultures were grown to an OD600 of 0.6 at 37 °C and 220 rpm. Protein expression was induced with 1 mM IPTG and expressed for 12 h at 100 rpm and room temperature (approximately 25 °C). Cells were spun down at 4000 rpm for 15 min at 4 °C and resuspended in lysis buffer containing 50 mM Tris (7.4), 150 mM NaCl, 0.08% DDM, 5 mM imidazole, and 5% glycerol (with an EDTA-free complete mini protease inhibitor cocktail). Cells were lysed via sonication, and the lysate was separated from cell debris by centrifugation at 15,000 rpm, 4 °C, for 45 min. The His-tagged protein was purified using QIAGEN Ni-NTA superflow columns, and the His-tag was removed with TEV protease. His-tag-removed proteins were further purified by size exclusion chromatography. His tag removal and size exclusion chromatography purification were done at the Northwestern University Protein Production core. 14-3-3-Q and 14-3-3-G proteins were purchased from Abchem (catalog numbers ab85270 and ab53869, respectively).
All of the FTSA experiments were conducted in HEPES buffer (60 mM HEPES, 150 mM NaCl, pH 7.4). A DMSO balanced 8-point dilution series of the compound in HEPES buffer was prepared in a 96-well assay plate (200, 100, 50, 25, 12.5, 6.25, 3.125, and 0 μM). Then, a 5 μL volume of the dilution series was transferred to a 384-well PCR plate using a multichannel pipet, and the plate was centrifuged at 1000 rpm for 2 min (the plate was covered with an adhesive aluminum seal). The protein sample was premixed at a concentration of 0.04 μg/μL with a 5X concentration of SYPRO orange in HEPES buffer, and a 5 μL aliquot was added to the compound wells. The plate was covered with an optical adhesive seal and was shaken for 2 min, followed by centrifugation at 1000 rpm for 2 min. The thermal scan was performed from 20 to 90 °C with a temperature gradient of 0.5 °C/min. The fluorescence was measured on a Bio-Rad CFX384 real-time PCR instrument.

[2] = PRAPP photolysis under 312 nm UV, followed by HPLC; assay type: physicochemical; details: PBS under 312 nm UV irradiation; irradiation at 312 nm, 100 μM in PBS pH 7.4; read-out: photolysis half-life (T1/2)
Protocol: The PRAPP (100 μM) was dissolved in PBS (50 mM, pH 7.4 [1% DMSO v/v]) and irradiated with UV light (λ = 312 nm, 120 V, 60 Hz, 0.2 A [Spectroline model EB-160C], distance ∼4 cm). UV light was removed from the reaction mixtures at varying time points (1, 2, 5, 10, and 20 min) and immediately analyzed by HPLC-UV–vis278 nm (injection volume of 5 μL). PRAPP % remaining was determined based on the area under the curve (AUC) of the UV–vis278 nm chromatogram. A first-order exponential decay curve was generated based on the AUC of the UV–vis chromatogram at 0, 1, 2, 5, 10, and 20 min and used to determine t1/2 of photolysis.

14-3-3-H = molecular target: T2, 14-3-3-H (Homo sapiens, UniProt Q04917); test: Fluorescent thermal shift assay (FTSA) with 14-3-3-H; assay type: binding
T2 construct: His-tag (TEV-cleavable) (cleaved yes); host or cells: E. coli (BL21)
T2 sequence (Q04917 1-246): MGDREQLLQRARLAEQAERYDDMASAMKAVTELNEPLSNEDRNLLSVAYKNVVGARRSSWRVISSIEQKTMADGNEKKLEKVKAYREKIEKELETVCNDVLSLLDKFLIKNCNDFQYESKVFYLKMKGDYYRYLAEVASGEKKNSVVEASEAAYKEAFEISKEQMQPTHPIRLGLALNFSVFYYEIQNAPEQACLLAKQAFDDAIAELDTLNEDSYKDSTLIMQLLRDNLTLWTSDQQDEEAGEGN
Protocol: as §1, with “14-3-3-Q and 14-3-3-G proteins were purchased from Abchem (catalog numbers ab85270 and ab53869, respectively).” left out
(§2) All of the FTSA experiments were conducted in HEPES buffer (60 mM HEPES, 150 mM NaCl, pH 7.4). […] The fluorescence was measured on a Bio-Rad CFX384 real-time PCR instrument.

14-3-3-Q = molecular target: T3, 14-3-3-Q (Homo sapiens, UniProt P27348); test: Fluorescent thermal shift assay (FTSA) with 14-3-3-Q; assay type: binding
T3 construct: purchased Abchem (so in the source)
T3 sequence (P27348 1-245): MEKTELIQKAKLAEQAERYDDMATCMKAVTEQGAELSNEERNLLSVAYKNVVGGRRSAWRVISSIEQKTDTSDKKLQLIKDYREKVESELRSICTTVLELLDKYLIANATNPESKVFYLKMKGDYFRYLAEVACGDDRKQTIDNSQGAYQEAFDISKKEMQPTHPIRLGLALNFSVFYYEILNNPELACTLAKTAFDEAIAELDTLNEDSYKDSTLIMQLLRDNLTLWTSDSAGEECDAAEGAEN
Protocol: as §1, with “14-3-3-Q and 14-3-3-G proteins were purchased from Abchem (catalog numbers ab85270 and ab53869, respectively).” left out
as §2

[3] = fit of ΔTm versus concentration, n = 2, read-out: Kd^app

half-life at 100 μM [2] [min] | SMILES | intensity of the 25 kDa covalently modified band in Hsp27 KO versus WT cells [1] | Tm shift (ΔTm) (14-3-3-E) [°C] | Kd (14-3-3-E; [3]) [nM] | binding (Tm shift) (14-3-3-H) | Tm shift (ΔTm) (14-3-3-Q; SYPRO orange) [°C] | Kd (14-3-3-Q; [3]) [µM]
3.12 | C#CCN(Cc1cc(=O)[nH][nH]1)Cc1c(F)c(F)c(N=[N+]=[N-])c(F)c1F [PRAPP, 5-(((4-Azido-2,3,5,6-tetrafluorobenzyl)(prop-2-yn-1-yl)amino)methyl)-1,2-dihydro-3H-pyrazol-3-one] | remains unchanged | 2.5 | – | – | – | –
– | O=c1cc(COc2cc(Cl)cc(Cl)c2)[nH][nH]1 [P2] | – | 3.2 | 2850 | no binding | 1.1 | 4.32
